Measured values reported in US6221865A, “Inhibitors of protein isoprenyl transferases” (priority 1998, dated 2001).
Counter-ions that a name gives are not always drawn.

Target: T1, protein farnesyltransferase (Rattus norvegicus, UniProt Q02293+Q04631)
T1 construct: The enzyme is purified according to Reiss, Y., et al., Cell, 62: 81-88 (1990), utilizing steps one through three; from tissue; host or cells: rat brain
Assay: Inhibition of farnesyltransferase (scintillation proximity assay, rat brain enzyme, biotin-K Ras B fragment substrate)
Format: biochemical
Settings: for inhibition at 1 µM: read-out: % inhibition of farnesyltransferase at 1 × 10^-6 M; for inhibition at 1 µM / % inhibition of farnesyltransferase at 1 × 10^-6 M: 1 × 10^-6 M (Table 2)
Description: The ability of the compounds of the invention to inhibit protein farnesyltransferase or protein geranylgeranyltransferase can be measured according to the method of Moores, et al., J. Biol. Chem. 266: 14603 (1991) or the method of Vogt, et al., J. Biol. Chem. 270:660-664 (1995). In addition, procedures for determination of the inhibition of farnesylation of the oncogene protein Ras are described by Goldstein, et al., J. Biol. Chem., 266:15575-15578 (1991) and by Singh in U.S. Pat. No. 5,245,061.
In addition, in vitro inhibition of protein farnesyltransferase may be measured by the following procedure. Rat brain protein farnesyltransferase activity is measured using an Amersham Life Science commercial scintillation proximity assay kit and substituting a biotin-K Ras B fragment (biotin-[…]Ble-Met-CO2 H), […] final concentration, for the biotin-lamin substrate provided by Amersham. The enzyme is purified according to Reiss, Y., et al., Cell, 62: 81-88 (1990), utilizing steps one through three.
The % inhibition of protein farnesyltransferase was determined for representative compounds of the invention.

T1 sequence (Q02293 whole entry, one chain of several): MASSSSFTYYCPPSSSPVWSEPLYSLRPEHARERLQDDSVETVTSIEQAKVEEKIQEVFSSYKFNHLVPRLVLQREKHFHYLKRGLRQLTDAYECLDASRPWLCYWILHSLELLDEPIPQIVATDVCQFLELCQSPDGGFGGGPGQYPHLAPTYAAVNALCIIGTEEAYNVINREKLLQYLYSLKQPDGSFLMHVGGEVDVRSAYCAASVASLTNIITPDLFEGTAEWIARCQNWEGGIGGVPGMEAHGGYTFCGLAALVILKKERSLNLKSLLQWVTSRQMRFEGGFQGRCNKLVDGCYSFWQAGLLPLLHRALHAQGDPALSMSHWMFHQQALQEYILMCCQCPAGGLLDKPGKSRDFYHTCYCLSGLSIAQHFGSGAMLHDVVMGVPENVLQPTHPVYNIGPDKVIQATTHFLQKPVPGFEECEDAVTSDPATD

CSCC[C@H](NC(=O)c1ccc(/C=C/c2ccc3ccccc3c2)cc1-c1ccccc1C)C(=O)O [Example 465, N-[4-(2-naphth-2-ylethenyl)-2-(2-methylphenyl)benzoyl]methionine]
inhibition at 1 µM: 92%

CSCC[C@H](NC(=O)c1ccc(/C=C/c2cccc3ccccc23)cc1-c1ccccc1C)C(=O)O [Example 466, N-[4-(2-naphth-1-ylethenyl)-2-(2-methylphenyl)benzoyl]methionine lithium salt]
inhibition at 1 µM: 93%

CSCC[C@H](NC(=O)c1ccc(CCc2cccc3ccccc23)cc1-c1ccccc1C)C(=O)O [Example 467, N-[4-(2-naphth-1-ylethyl)-2-(2-methylphenyl)benzoyl]methionine lithium salt]
inhibition at 1 µM: 97%

CSCC[C@H](NC(=O)c1ccc(CCc2ccc3ccccc3c2)cc1-c1ccccc1C)C(=O)O [Example 468, lithium salt]
inhibition at 1 µM: 96%

CSCC[C@H](NC(=O)c1ccc(CCCc2ccc3ccccc3c2)cc1-c1ccccc1C)C(=O)O [Example 470, N-[4-(3-naphth-2-ylpropyl)-2-(2-methylphenyl)benzoyl]methionine lithium salt]
inhibition at 1 µM: 95%

CSCC[C@H](NC(=O)c1ccc(/C=C/CC2CCCCC2)cc1-c1ccccc1C)C(=O)O [Example 471, N-[4-(3-cyclohexylprop-1-enyl)-2-(2-methylphenyl)benzoyl]methionine lithium salt]
inhibition at 1 µM: 94%

CSCC[C@H](NC(=O)c1ccc(/C=C/CCc2ccccc2)cc1-c1ccccc1C)C(=O)O [Example 472, N-[4-(4-phenylbut-1-enyl)-2-(2-methylphenyl)benzoyl]methionine]
inhibition at 1 µM: 97%

CSCC[C@H](NC(=O)c1ccc(CCCC(=O)c2ccc3ccccc3c2)cc1-c1ccccc1C)C(=O)O [Example 473, N-[4-(4-naphth-2-ylbut-4-on-1-yl)-2-(2-methylphenyl)benzoyl]methionine lithium salt]
inhibition at 1 µM: 96%

CSCC[C@H](NC(=O)c1ccc(/C=C/CC(O)c2ccc3ccccc3c2)cc1-c1ccccc1C)C(=O)O (some centres unmarked) [Example 474, N-[4-(4-naphth-2-ylbut-4-ol-1-enyl)-2-(2-methylphenyl)benzoyl]methionine]
inhibition at 1 µM: 92%

CSCC[C@H](NC(=O)c1ccc(NCC(CO)(Cc2ccccc2)Cc2ccccc2)cc1-c1ccccc1C)C(=O)O [Example 475]
% inhibition of farnesyltransferase at 1 × 10^-6 M: 21%

CSCC[C@H](NC(=O)c1ccc(NCC(CO)Cc2ccccc2)cc1-c1ccccc1C)C(=O)O (some centres unmarked) [Example 476]
% inhibition of farnesyltransferase at 1 × 10^-6 M: 91%

CSCC[C@H](NC(=O)c1ccc(CCCCC2CCCCC2)cc1-c1ccccc1C)C(=O)O [Example 478, N-[4-(4-cyclohexylbutyl)-2-(2-methyphenyl)benzoyl]methionine sodium salt]
inhibition at 1 µM: 98%

CSCC[C@H](NC(=O)c1ccc(NCC(CO)CC2CCCCC2)cc1-c1ccccc1C)C(=O)O (some centres unmarked) [Example 479]
% inhibition of farnesyltransferase at 1 × 10^-6 M: 95%

CSCC[C@H](NC(=O)c1ccc(C=CCCCc2ccccc2)cc1-c1ccccc1C)C(=O)O [Example 480, N-[4-(5-phenylpent-1-enyl)-2-(2-methylphenyl)benzoyl]methionine]
inhibition at 1 µM: 87%

CSCC[C@H](NC(=O)c1ccc(NC(=O)c2cnccc2C(F)(F)F)cc1-c1ccccc1C)C(=O)O [Example 481]
% inhibition of farnesyltransferase at 1 × 10^-6 M: 95%

CSCC[C@H](NC(=O)c1ccc(C#Cc2cncnc2)cc1-c1ccccc1C)C(=O)O [Example 493, N-[4-(2-pyrimidin-5-ylethynyl)-2-(2-methylphenyl)benzoyl]methionine lithium salt]
inhibition at 0.1 µM (read-out: % inhibition of farnesyltransferase at 1 × 10^-7 M, 1 × 10^-7 M (Table 3)): 51%

CSCC[C@H](NC(=O)c1ccc(/C=C/c2cncnc2)cc1-c1ccccc1C)C(=O)O [Example 494, N-[4-(2-pyrimidin-5-ylethen-1-yl)-2-(2-methylphenyl)benzoyl]methionine lithium salt]
inhibition at 1 µM: 96%

CSCC[C@H](NC(=O)c1ccc(/C=C/c2cnccn2)cc1-c1ccccc1C)C(=O)O [Example 495, N-[4-(2-pyrazin-2-ylethen-1-yl)-2-(2-methylphenyl)benzoyl]methionine lithium salt]
inhibition at 1 µM: 95%

CSCC[C@H](NC(=O)c1ccc(Sc2ccc3ccccc3c2)cc1-c1ccccc1C)C(=O)O [Example 497]
% inhibition of farnesyltransferase at 1 × 10^-6 M: 94%

CSCC[C@H](NC(=O)c1ccc(SCCc2ccccc2)cc1-c1ccccc1C)C(=O)O [Example 498]
% inhibition of farnesyltransferase at 1 × 10^-6 M: 98%

CSCC[C@H](NC(=O)c1ccc(NCCO)cc1-c1ccccc1)C(=O)O [Example 502]
% inhibition of farnesyltransferase at 1 × 10^-6 M: 24%

CSCC[C@H](NC(=O)c1ccc(NC(=O)[C@@H](N)COCc2ccccc2)cc1-c1ccccc1)C(=O)O [Example 503]
% inhibition of farnesyltransferase at 1 × 10^-6 M: 57%

CSCC[C@H](NC(=O)c1ccc(CN(Cc2ccccc2)Cc2ccco2)cc1-c1ccccc1C)C(=O)O [Example 504]
% inhibition of farnesyltransferase at 1 × 10^-6 M: 90%

CSCC[C@H](NC(=O)c1ccc(CN(CCO)c2ccccc2)cc1-c1ccccc1)C(=O)O [Example 505]
% inhibition of farnesyltransferase at 1 × 10^-6 M: 72%

CSCC[C@H](NC(=O)c1ccc(CN(CCc2ccccc2)c2ccccc2)cc1-c1ccccc1C)C(=O)O [Example 507]
% inhibition of farnesyltransferase at 1 × 10^-6 M: 96%

CSCC[C@H](NC(=O)c1ccc(CN(CCCc2ccccc2)c2ccccc2)cc1-c1ccccc1C)C(=O)O [Example 508]
% inhibition of farnesyltransferase at 1 × 10^-6 M: 95%

CSCC[C@H](NC(=O)c1ccc(CN(CC(c2ccccc2)c2ccccc2)c2ccccc2)cc1-c1ccccc1C)C(=O)O [Example 509]
% inhibition of farnesyltransferase at 1 × 10^-6 M: 77%

CSCC[C@H](NC(=O)c1ccc(CN(CC23CC4CC(CC(C4)C2)C3)c2ccccc2)cc1-c1ccccc1C)C(=O)O [Example 510]
% inhibition of farnesyltransferase at 1 × 10^-6 M: 84%

CSCC[C@H](NC(=O)c1ccc(CN(CCC23CC4CC(CC(C4)C2)C3)c2ccccc2)cc1-c1ccccc1C)C(=O)O [Example 511]
% inhibition of farnesyltransferase at 1 × 10^-7 M (1 × 10^-7 M (Table 3)): 82%

CSCC[C@H](NC(=O)c1ccc(CN(Cc2ccccc2)Cc2ccccc2)cc1-c1ccccc1C)C(=O)O [Example 512]
% inhibition of farnesyltransferase at 1 × 10^-6 M: 94%

CSCC[C@H](NC(=O)c1ccc(CN(CCc2ccccc2)Cc2ccccc2)cc1-c1ccccc1C)C(=O)O [Example 513]
% inhibition of farnesyltransferase at 1 × 10^-6 M: 96%

CSCC[C@H](NC(=O)c1ccc(CN(Cc2ccccc2)Cc2cccc(Oc3ccccc3)c2)cc1-c1ccccc1C)C(=O)O [Example 514]
% inhibition of farnesyltransferase at 1 × 10^-6 M: 94%

CSCC[C@H](NC(=O)c1ccc(CN(CCO)Cc2ccccc2)cc1-c1ccccc1)C(=O)O [Example 515]
% inhibition of farnesyltransferase at 1 × 10^-6 M: 72%

CSCC[C@H](NC(=O)c1ccc(CN(C)CCc2ccccc2)cc1-c1ccccc1C)C(=O)O [Example 516]
% inhibition of farnesyltransferase at 1 × 10^-6 M: 95%

CSCC[C@H](NC(=O)c1ccc(CN(CCc2ccccc2)c2cncnc2)cc1-c1ccccc1C)C(=O)O [Example 518]
% inhibition of farnesyltransferase at 1 × 10^-8 M (1 × 10^-8 M (Table 4)): 90%

CSCC[C@H](NC(=O)c1ccc(CNCCc2c[nH]c3ccccc23)cc1-c1ccccc1C)C(=O)O [Example 519]
% inhibition of farnesyltransferase at 1 × 10^-7 M (1 × 10^-7 M (Table 3)): 89%

CSCC[C@H](NC(=O)c1ccc(CN[C@H](CO)C2CCCCC2)cc1-c1ccccc1C)C(=O)O [Example 520]
% inhibition of farnesyltransferase at 1 × 10^-7 M (1 × 10^-7 M (Table 3)): 97%

C=C(C)C1CC=C(COCc2ccc(C(=O)N[C@@H](CCSC)C(=O)O)c(-c3ccccc3C)c2)CC1 (some centres unmarked) [Example 521]
% inhibition of farnesyltransferase at 1 × 10^-7 M (1 × 10^-7 M (Table 3)): 94%

CSCC[C@H](NC(=O)c1ccc(COC(Cc2ccccc2)Cc2ccccc2)cc1-c1ccccc1C)C(=O)[O-].[Li+] [Example 522]
% inhibition of farnesyltransferase at 1 × 10^-7 M (1 × 10^-7 M (Table 3)): 93%

CSCC[C@H](NC(=O)c1ccc(CNC(Cc2ccccc2)Cc2ccccc2)cc1-c1ccccc1C)C(=O)O [Example 523]
% inhibition of farnesyltransferase at 1 × 10^-7 M (1 × 10^-7 M (Table 3)): 97%

CSCC[C@H](NC(=O)c1ccc(CNC(CC2CCCCC2)CC2CCCCC2)cc1-c1ccccc1C)C(=O)O [Example 524]
% inhibition of farnesyltransferase at 1 × 10^-7 M (1 × 10^-7 M (Table 3)): 99%

CCOC[C@H](CC1CCCCC1)OCc1ccc(C(=O)N[C@@H](CCSC)C(=O)O)c(-c2ccccc2C)c1 [Example 525]
% inhibition of farnesyltransferase at 1 × 10^-6 M: 99%

CSCC[C@H](NC(=O)c1ccc(CN[C@H](/C=C\CC(C)C)CC2CCCCC2)cc1-c1ccccc1C)C(=O)O [Example 526]
% inhibition of farnesyltransferase at 1 × 10^-7 M (1 × 10^-7 M (Table 3)): 96%

CSCC[C@H](NC(=O)c1ccc(CN[C@H](CCCC(C)C)CC2CCCCC2)cc1-c1ccccc1C)C(=O)O [Example 527]
% inhibition of farnesyltransferase at 1 × 10^-7 M (1 × 10^-7 M (Table 3)): 97%
